From patent publication US6444850B1, “Fungicidial compounds having a fluorovinyloxphyenyl moiety and process for the preparation thereof” (priority 1997, dated 2002)

Tests used:
[1] = system: Rhizoctonia solani AG-1; assay: Fungicidal activity against rice sheath blight (RSB) disease; settings: 50 ppm, control value
[2] = system: Phytophthora infestans; type: in vivo; settings: 50 ppm; control value, tomato late blight
[3] = system: Pyricularia oryzae Carvara KA301; type: in vivo; settings: for C. V. (%) RCB: 50 ppm, control value, rice blast; for C. V. (%) Fungicidal Activities against RCB at 10 ppm / C. V. (%) Fungicidal Activities against RCB at 10 ppm (TABLE 6): sprayed on Nakdong rice plant, control value from lesion area
[4] = system: Erysiphae graminis; assay: Fungicidal activity against barley powdery mildew (BPM) disease; type: in vivo; settings: for C. V. (%), Fungicidal activities against TLB at 10 ppm: Table 9 (Test Example 6); for C. V. (%) BPM: 50 ppm, control value, barley powdery mildew
[5] = system: Puccinia recondita; assay: Fungicidal activity against wheat leaf rust (WLR) disease; type: in vivo; settings: for C. V. (%), Fungicidal Activities against WLB at 10 ppm: Table 8 (Test Example 5); for C. V. (%) WLR: 50 ppm, control value, wheat leaf rust
[6] = system: Botrytis cinerae; assay: Fungicidal activity against cucumber gray mold rot (CGM) disease; type: in vivo; settings: 50 ppm, control value

SMILES	C. V. (%) RSB [1]	C. V. (%) TLB [2]	C. V. (%) RCB [3]	C. V. (%), Fungicidal activities against TLB at 10 ppm [4]	C. V. (%) BPM [4]	C. V. (%), Fungicidal Activities against WLB at 10 ppm [5]	C. V. (%) WLR [5]	C. V. (%) CGM [6]	C. V. (%) Fungicidal Activities against RCB at 10 ppm [3]	C. V. (%) Fungicidal Activities against RCB at 10 ppm (TABLE 6) [3]
CON=C(C(=O)OC)c1ccccc1COc1cccc(OC(F)=C(c2cccc(OC)c2)C(F)(F)F)c1 [Compound 73]	92%	60%	93%	88%	93%	96%	98%	9%		
CNC(=O)C(=NOC)c1ccccc1COc1cccc(OC(F)=C(c2cccc(OC)c2)C(F)(F)F)c1 [Compound 74]	70%	64%	100%	100%	100%	100%	100%	52%	93%	93%
CNC(=O)C(=COC)c1ccccc1COc1cccc(OC(F)=C(c2ccc(OC)cc2)C(F)(F)F)c1 [Compound 75]	40%	33%	0%		0%		0%	0%		
CON=C(C(=O)OC)c1ccccc1COc1cccc(OC(F)=C(c2ccc(OC)cc2)C(F)(F)F)c1 [Compound 76]	90%	44%	63%	96%	99%	99%	96%	0%		
CNC(=O)C(=NOC)c1ccccc1COc1cccc(OC(F)=C(c2ccc(OC)cc2)C(F)(F)F)c1 [Compound 77]	60%	82%	99%	100%	100%	100%	100%	11%	96%	96%
CCOc1ccc(C(=C(F)Oc2cccc(OCc3ccccc3C(=COC)C(=O)OC)c2)C(F)(F)F)cc1 [Compound 78]	40%	0%	0%	100%	100%	97%	98%	0%		
CCOc1ccc(C(=C(F)Oc2cccc(OCc3ccccc3C(=NOC)C(=O)OC)c2)C(F)(F)F)cc1 [Compound 79]	55%	18%	0%	99%	100%	96%	100%	7%		
CCOc1ccc(C(=C(F)Oc2cccc(OCc3ccccc3C(=NOC)C(=O)NC)c2)C(F)(F)F)cc1 [Compound 80]	0%	0%	100%	100%	100%	100%	100%	0%	95%	95%
COC=C(C(=O)OC)c1ccccc1COc1cccc(OC(F)=C(c2ccc3c(c2)OCO3)C(F)(F)F)c1 [Compound 81]	65%	33%	86%	100%	100%	100%	100%	0%		
CON=C(C(=O)OC)c1ccccc1COc1cccc(OC(F)=C(c2ccc3c(c2)OCO3)C(F)(F)F)c1 [Compound 82]	45%	0%	50%	97%	100%	96%	98%	0%		
COC=C(C(=O)OC)c1ccccc1COc1cccc(OC(F)=C(c2cccc(C(F)(F)F)c2)C(F)(F)F)c1 [Compound 83]	50%	11%	25%	100%	100%	94%	100%	0%		
COC=C(C(=O)OC)c1ccccc1COc1cccc(OC(F)=C(c2cccc(Cl)c2)C(F)(F)F)c1 [Compound 84]	25%	81%	90%	100%	100%	97%	100%	16%	95%	95%
CNC(=O)C(=COC)c1ccccc1COc1cccc(OC(F)=C(c2cccc(Cl)c2)C(F)(F)F)c1 [Compound 85]	10%	22%	16%		0%		73%	16%		
CON=C(C(=O)OC)c1ccccc1COc1cccc(OC(F)=C(c2cccc(Cl)c2)C(F)(F)F)c1 [Compound 86]	90%	22%	90%	95%	100%	96%	100%	27%		
CNC(=O)C(=NOC)c1ccccc1COc1cccc(OC(F)=C(c2cccc(Cl)c2)C(F)(F)F)c1 [Compound 87]	0%	0%	100%	100%	100%	100%	100%	0%	100%	100%
COC=C(C(=O)OC)c1ccccc1COc1cccc(OC(F)=C(c2ccc(Cl)cc2)C(F)(F)F)c1 [Compound 88]	25%	31%	92%	100%	100%	93%	98%	25%		
CNC(=O)C(=COC)c1ccccc1COc1cccc(OC(F)=C(c2ccc(Cl)cc2)C(F)(F)F)c1 [Compound 89]	25%	33%	0%		0%		33%	22%		
